Assay results reported in ChEMBL document CHEMBL4033724, “Novel sulfonamide-containing 2-indolinones that selectively inhibit tumor-associated alpha carbonic anhydrases” (Bioorg Med Chem, 2017).

Legend:
Carbonic anhydrase 12 = Carbonic anhydrase 12 (Homo sapiens, UniProt O43570); assay: Inhibition of recombinant human […] expressed in Escherichia coli pretreated for 15 mins prior to testing by stopped-flow assay
Carbonic anhydrase 2 = Carbonic anhydrase 2 (Homo sapiens, UniProt P00918); assay: Inhibition of recombinant human cytosolic carbonic anhydrase 2 expressed in Escherichia coli pretreated for 15 mins prior to testing by stopped-flow assay
Carbonic anhydrase 9 = Carbonic anhydrase 9 (Homo sapiens, UniProt Q16790); assay: Inhibition of recombinant human membrane bound carbonic anhydrase 9 expressed in Escherichia coli pretreated for 15 mins prior to testing by stopped-flow assay
Carbonic anhydrase 1 = Carbonic anhydrase 1 (Homo sapiens, UniProt P00915); assay: Inhibition of recombinant human cytosolic carbonic anhydrase 1 expressed in Escherichia coli pretreated for 15 mins prior to testing by stopped-flow assay
Sequence of Carbonic anhydrase 1 (P00915 whole entry): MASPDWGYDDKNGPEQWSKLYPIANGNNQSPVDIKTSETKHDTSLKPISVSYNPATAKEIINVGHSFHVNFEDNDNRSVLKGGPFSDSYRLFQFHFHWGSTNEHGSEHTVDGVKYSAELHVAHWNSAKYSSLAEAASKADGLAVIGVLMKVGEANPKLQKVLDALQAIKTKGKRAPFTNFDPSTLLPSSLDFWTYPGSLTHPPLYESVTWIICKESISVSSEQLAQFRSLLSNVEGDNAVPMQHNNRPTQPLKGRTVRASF

Sequence of Carbonic anhydrase 12 (O43570 whole entry): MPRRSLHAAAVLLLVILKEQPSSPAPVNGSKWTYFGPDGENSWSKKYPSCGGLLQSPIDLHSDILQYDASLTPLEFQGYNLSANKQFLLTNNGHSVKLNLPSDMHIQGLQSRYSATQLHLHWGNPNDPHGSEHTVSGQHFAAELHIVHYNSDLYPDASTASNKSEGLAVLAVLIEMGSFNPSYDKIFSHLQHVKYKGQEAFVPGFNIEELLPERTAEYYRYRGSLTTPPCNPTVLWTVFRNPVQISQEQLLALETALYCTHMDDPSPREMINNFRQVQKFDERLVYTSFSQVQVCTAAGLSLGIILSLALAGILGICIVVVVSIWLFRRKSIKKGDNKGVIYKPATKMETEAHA

Row | Ki (Carbonic anhydrase 12) | Ki (Carbonic anhydrase 2) | Ki (Carbonic anhydrase 9) | Ki (Carbonic anhydrase 1) | Structure (SMILES)
1 | 5.8 nM | 616 nM | 54.2 nM | 650 nM | NS(=O)(=O)c1ccc(NC(=S)N/N=C2\C(=O)Nc3ccc(Cl)cc32)cc1
2 | 6.3 nM | 687 nM | 58.1 nM | 698 nM | NS(=O)(=O)c1ccc(NC(=S)N/N=C2\C(=O)Nc3c(Br)cc(Br)cc32)cc1
3 | 5.9 nM | 399 nM | 16.8 nM | 624 nM | NS(=O)(=O)c1ccc(NC(=S)N/N=C2\C(=O)Nc3ccc(I)cc32)cc1
4 | 5.7 nM | 735 nM | 62.3 nM | 744 nM | Cc1ccc2c(c1)/C(=N/NC(=S)Nc1ccc(S(N)(=O)=O)cc1)C(=O)N2
5 | 87.3 nM | 426 nM | 13.3 nM | 76.1 nM | NS(=O)(=O)c1ccc(NC(=S)N/N=C2\C(=O)Nc3c(Cl)cccc32)cc1
6 | 1.2 nM | 897 nM | 34.4 nM | 901 nM | NS(=O)(=O)c1ccc(NC(=S)N/N=C2\C(=O)Nc3ccc(S(=O)(=O)O)cc32)cc1
7 | 4.5 nM | 551 nM | 38.8 nM | 558 nM | NS(=O)(=O)c1ccc(NC(=S)N/N=C2\C(=O)Nc3ccc(F)cc32)cc1
8 | 6.1 nM | 851 nM | 64.8 nM | 882 nM | NS(=O)(=O)c1ccc(NC(=S)N/N=C2\C(=O)Nc3ccc(Br)cc32)cc1
9 | 6.9 nM | 936 nM | 66.3 nM | 1190 nM | NS(=O)(=O)c1ccc(NC(=S)N/N=C2\C(=O)Nc3ccccc32)cc1
10 | 82.3 nM | 782 nM | 21.3 nM | 554 nM | NS(=O)(=O)c1ccc(NC(=S)N/N=C2\C(=O)Nc3c(Cl)cc(Cl)cc32)cc1
11 | 4.1 nM | 32 nM | 19.5 nM | 68.8 nM | NS(=O)(=O)c1ccc(NC(=S)N/N=C2\C(=O)Nc3ccc([N+](=O)[O-])cc32)cc1
12 | 6 nM | 420 nM | 45.7 nM | 481 nM | NS(=O)(=O)c1ccc(NC(=S)N/N=C2\C(=O)Nc3ccc(OC(F)(F)F)cc32)cc1
13 | 45.5 nM | 26.9 nM | 20.8 nM | 57.6 nM | NS(=O)(=O)c1ccc(NC(=S)N/N=C2\C(=O)Nc3c(F)cccc32)cc1
